ChEMBL document CHEMBL1201862, “PubChem BioAssay data set” (2004)
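Cells were grown in 96-well plates and exposed to each compound for 48 hours at five concentrations; endpoints were interpolated linearly between bracketing concentrations, or set to the highest concentration if not reached. Here, GI50 denotes the concentration required for 50% inhibition of growth.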 Calls of active or inactive are those of the source. Rule as the data show it: active = GI50 up to about 1.1 µM and inactive = higher.

Assays:
Assay in all cases: NCI anticancer screen, dose series, 48 h
SF-539 = system: SF-539
SNB-19 = system: SNB-19
SK-MEL-28 = system: SK-MEL-28
COLO 205 = system: COLO 205
CCRF-CEM = system: CCRF-CEM
SK-MEL-5 = system: SK-MEL-5
SW-620 = system: SW-620
NCI-H460 = system: NCI-H460
IGROV-1 = system: IGROV-1
NCI-H23 = system: NCI-H23
K562 = system: K562
NCI-H522 = system: NCI-H522
HL-60 = system: HL-60
OVCAR-3 = system: OVCAR-3
LOX IMVI = system: LOX IMVI
A549 = system: A549
U-251 = system: U-251
HT-29 = system: HT-29
SNB-75 = system: SNB-75
MOLT-4 = system: MOLT-4

Measured: GI50

COc1nc(SC)nc2c1cnn2C1OC(C(O)CO)C(OC)C1O (stereo not given)
inactive: SF-539 > 100 µM | SNB-19 > 100 µM | SK-MEL-28 > 100 µM | COLO 205 > 74.5 µM | CCRF-CEM 58.7 µM | SK-MEL-5 > 100 µM | SW-620 > 100 µM | NCI-H460 74.6 µM | IGROV-1 > 100 µM | NCI-H23 > 100 µM | K562 > 100 µM | NCI-H522 > 100 µM | HL-60 52.7 µM | OVCAR-3 99.3 µM | LOX IMVI > 100 µM | A549 52.1 µM | U-251 > 100 µM | HT-29 52.4 µM | SNB-75 48.4 µM | MOLT-4 14 µM

O=C(NN1C(=O)CS(=O)(=O)C1c1ccc(Cl)c(Cl)c1)c1ccncc1 (stereo not given)
inactive: SF-539 > 100 µM | SNB-19 > 92.3 µM | SK-MEL-28 > 100 µM | COLO 205 > 100 µM | CCRF-CEM 42.1 µM | SK-MEL-5 > 94.2 µM | SW-620 > 100 µM | NCI-H460 > 100 µM | IGROV-1 > 100 µM | NCI-H23 > 100 µM | K562 > 54.2 µM | NCI-H522 66.1 µM | HL-60 > 43 µM | OVCAR-3 > 90.8 µM | LOX IMVI > 95.9 µM | A549 > 92.3 µM | U-251 > 100 µM | HT-29 > 71.3 µM | SNB-75 54.2 µM | MOLT-4 > 40.3 µM

C[N+](C)([O-])CCOc1cc2c(c3ccccc13)-c1ccccc1C2=O
inactive: SF-539 15.1 µM | SNB-19 13.6 µM | SK-MEL-28 18.3 µM | COLO 205 16.3 µM | CCRF-CEM 8.2 µM | SK-MEL-5 14.4 µM | SW-620 12.3 µM | NCI-H460 9.44 µM | IGROV-1 19.1 µM | NCI-H23 21.5 µM | K562 15.8 µM | NCI-H522 10.2 µM | HL-60 14.3 µM | OVCAR-3 11.7 µM | LOX IMVI 4.31 µM | A549 23.3 µM | U-251 13.3 µM | HT-29 7.46 µM | SNB-75 17.5 µM | MOLT-4 3.46 µM

N#C/N=N/c1cc(Cl)c(/N=N/C#N)cc1Cl
inactive: SF-539 > 100 µM | SNB-19 > 100 µM | SK-MEL-28 > 100 µM | COLO 205 97.5 µM | CCRF-CEM 19.8 µM | SK-MEL-5 > 100 µM | SW-620 35.3 µM | NCI-H460 > 100 µM | IGROV-1 > 100 µM | NCI-H23 > 100 µM | K562 27.1 µM | NCI-H522 51.3 µM | HL-60 34.7 µM | OVCAR-3 > 100 µM | LOX IMVI 38.6 µM | A549 > 100 µM | U-251 > 100 µM | HT-29 > 100 µM | SNB-75 51.9 µM | MOLT-4 40.9 µM

O=C(O)C12CCCCC1CCCC2 (stereo not given)
inactive: SF-539 > 100 µM | SNB-19 > 100 µM | SK-MEL-28 > 100 µM | COLO 205 > 100 µM | CCRF-CEM > 100 µM | SK-MEL-5 > 100 µM | SW-620 > 100 µM | NCI-H460 > 100 µM | IGROV-1 > 100 µM | NCI-H23 > 100 µM | K562 > 100 µM | NCI-H522 > 100 µM | HL-60 > 100 µM | OVCAR-3 > 100 µM | LOX IMVI > 100 µM | A549 > 100 µM | U-251 > 100 µM | HT-29 > 100 µM | SNB-75 98.2 µM | MOLT-4 > 100 µM
